Article PMC7057333 (ACS Omega, 2020)
pIC50, pKd, pKi: −log10 of the molar value. Read-outs that look alike come from different tables or passages of the source. Ends that are not written are not given here.

Assays:
LSD1 [1] = target: T1, LSD1 (Homo sapiens, UniProt O60341); test: HRP-coupled fluorescence LSD1 demethylation activity and inhibition assay, substrate H3_1-21 K4(Me); type: biochemical
T1 construct: made in house; host or cells: Escherichia coli Rosetta 2 (pET15b)

LSD1 [2] = target: T1, LSD1; test: SPR biosensor interaction kinetic assay with immobilized LSD1 (15 °C, TBS-T with DTT); type: binding
[3] = 100 μM, supplement sheet SMILES and Activity, read-out: Inhibition at 100 μM (%)

`CSCC[C@H](NC(=O)[C@@H](NC(=O)[C@H](CCCNC(=N)N)NC(=O)[C@H](C)N)[C@@H](C)O)C(=O)N[C@@H](CCC(N)=O)C(=O)N[C@H](C(=O)N[C@@H](C)C(=O)N[C@@H](CCCNC(=N)N)C(=O)N[C@@H](CCCCN)C(=O)N[C@@H](CO)C(=O)N[C@H](C(=O)O)[C@@H](C)O)[C@@H](C)O` [Peptide 4] showed a pIC50 (LSD1 [1]) of under 4.00 and a pKd (LSD1 [2]; KD, SPR, immobilized LSD1, 15 °C, ni = no interaction observed, ns = high nonspecific binding, weak interactions only approximated, highest concentration 200 μM) of about 3.85.
For `C[C@H](N)C(=O)N[C@@H](CCCNC(=N)N)C(=O)N[C@H](C(=O)N[C@@H](CCCCN)C(=O)N[C@@H](CCC(N)=O)C(=O)N[C@H](C(=O)N[C@@H](C)C(=O)N[C@@H](CCCNC(=N)N)C(=O)N[C@@H](CCCCN)C(=O)N[C@@H](CO)C(=O)N[C@H](C(N)=O)[C@@H](C)O)[C@@H](C)O)[C@@H](C)O` [Peptide 9], the pKd (LSD1 [2]) was under 4.00.
For `CCCC[C@H](NC(=O)[C@@H](NC(=O)[C@H](CCCNC(=N)N)NC(=O)[C@H](C)N)[C@@H](C)O)C(=O)N[C@@H](CCC(N)=O)C(=O)N[C@H](C(=O)N[C@@H](C)C(=O)N[C@@H](CCCNC(=N)N)C(=O)N[C@@H](CCCCN)C(=O)N[C@@H](CO)C(=O)N[C@H](C(N)=O)[C@@H](C)O)[C@@H](C)O` [Peptide 15, ART(Nle)QTARKST-NH2], the pKd (LSD1 [2]) was under 3.70.
Work on `CCCCCC[C@H](NC(=O)[C@@H](NC(=O)[C@H](CCCNC(=N)N)NC(=O)[C@H](C)N)[C@@H](C)O)C(=O)N[C@@H](CCC(N)=O)C(=O)N[C@H](C(=O)N[C@@H](C)C(=O)N[C@@H](CCCNC(=N)N)C(=O)N[C@@H](CCCCN)C(=O)N[C@@H](CO)C(=O)N[C@H](C(N)=O)[C@@H](C)O)[C@@H](C)O` [Peptide 16, ART(Aoc)QTARKST-NH2] yielded a pKd (LSD1 [2]) of under 3.70.
`C[C@H](N)C(=O)N[C@@H](CCCNC(=N)N)C(=O)N[C@H](C(=O)N[C@@H](CCc1ccccc1)C(=O)N[C@@H](CCC(N)=O)C(=O)N[C@H](C(=O)N[C@@H](C)C(=O)N[C@@H](CCCNC(=N)N)C(=O)N[C@@H](CCCCN)C(=O)N[C@@H](CO)C(=O)N[C@H](C(N)=O)[C@@H](C)O)[C@@H](C)O)[C@@H](C)O` [Peptide 17, ART(homoPhe)QTARKST-NH2] showed a pKd (LSD1 [2]) of under 3.70.
`CSCC[C@@H]1NC(=O)[C@@H](NC(=O)[C@H](CCCNC(=N)N)NC(=O)[C@H](C)N)C/C=C\C[C@@H](C(=O)N[C@@H](C)C(=O)N[C@@H](CCCNC(=N)N)C(=O)N[C@@H](CCCCN)C(=O)N[C@@H](CO)C(=O)N[C@H](C(N)=O)[C@@H](C)O)NC(=O)[C@H](CCC(N)=O)NC1=O` [Peptide 21, ARG^alyMQG^alyARKST-NH2] was tested, and the inhibition at 100 µM (LSD1 [1]; [3]) was 95%, the inhibition at 100 µM (LSD1 [1]; read-out: % inhibition at 100 μM) was 95% and the pKd (LSD1 [2]) was under 4.00.
In the case of ARTMQTA-OH [Peptide 6, ARTMQTA-OH], the pKd (LSD1 [2]) was under 3.70.
PRTMQTARKST-NH2 [Peptide 11] was tested, and the pKi (LSD1 [1]) was 5.10, the inhibition at 100 µM (LSD1 [1]; [3]) was 93% and the mode of inhibition (LSD1 [1]; enzyme activity assay, inhibition kinetics) was “competitive inhibitor”. It also gave a pIC50 (LSD1 [1]; supplement sheet SMILES and Activity, read-out: IC50) of 4.90 and a pKd (LSD1 [2]) of 5.00.
